Experimental data reported in publication PMC7481357, “N-terminal Myristoylation Enhanced the Antimicrobial Activity of Antimicrobial Peptide PMAP-36PW” (Frontiers in Cellular and Infection Microbiology, 2020).
Entries after “also recorded” stand apart in the source; their conditions may differ. Residues, ends and D or L forms follow the SMILES beside them. *: point of attachment. Myristoyl = CCCCCCCCCCCCCC(=O)*

How the values were obtained:
S. aureus ATCC 25923 [1] = assay: Peritonitis model; format: in vivo, BALB/c mice; settings: intraperitoneal 60 μL, 1 μg/μL, once a day for 3 days; for Liver pathogenic scores: compared with PBS group; for Liver pathogenic scores / Bacterial CFU in liver and spleen homogenate / Spleen pathogenic scores: n = 5
Protocol: The peritonitis model in vivo was generated by intraperitoneally injecting S. aureus ATCC 25923 (2.5 × 10^9 CFU/mL, 140 μL). Sixty mice were randomly divided into six groups of 10 members: those who received no infection and treatment was used as a blank control, those with […] administration of PBS (60 μL) as the negative control group, those administered with benzylpenicillin potassium (60 μL, 1 μg/μL) as the positive control group, and the remaining three groups corresponded to three antimicrobial peptide groups of Myr-36PW (60 μL, 1 μg/μL), PMAP-36PW (60 μL, 1 μg/μL), and PMAP-36 (60 μL, 1 μg/μL). After 4 h post-inoculation, treatment was initiated by intraperitoneal injection once a day for 3 days. The mice were sacrificed 24 h the treatment. Changes in the appearance of anatomical tissues were observed. The liver and spleen tissues were removed aseptically from the mice, and half of these samples were gently fixed in buffered formaldehyde solution for histopathological assessment by hematoxylin and eosin (H&E) staining. Pathological changes were scored to assess individual therapeutic status as described previously (Song et al., [2015]; Lei et al., [2018]). The remaining half of livers and spleens were added with 1 mL of PBS, homogenized, and serially diluted. Bacterial CFU counts were measured.
Figure 9 Therapeutic potency of peritonitis by Myr-36PW in vivo. The livers and spleens (n = 5) in each group were collected on day 4 after the intraperitoneal injection of S. aureus ATCC 25923. (A) Morphological changes in liver and spleen tissues. (B) Representative histopathological images of processed liver and spleen sections with hematoxylin and eosin (H&E) staining. Images are presented at a magnification of 40×. a: central venous hemorrhage. b: the cells fuse into pieces, and the nucleus dissolves and disappears. c: cytoplasmic cavitation. (C,D) Pathological scores of the liver and spleen sections. Scoring standard: 1 indicated no pathology, 2 indicated perivascular infiltrates, 3 indicated perivascular or interstitial infiltrates affecting <20% of the section, 4 indicated perivascular or interstitial infiltrates affecting 20–50% of the section, and 5 indicated perivascular or interstitial infiltrates affecting >50% of the section. (E,F) Bacterial CFU in liver and spleen homogenate. BP is benzylpenicillin potassium. Data represent the mean ± SD of five individual experiments.

[2] = system: L. monocytogenes CICC 21634; format: cell-based, Listeria monocytogenes
Protocol: (§1) The MICs of Myr-36PW in vitro were measured through microdilution in accordance with the Clinical and Laboratory Standards Institute (CLSI, [2020]). The bacterial cells were cultured for 12 h at 37°C in the appropriate medium and then diluted to 1 × 10^6 CFU/mL. Equal volumes (100 μL) of bacterial cell suspension and two-fold serially diluted different concentrations peptides (0.0039–256 μg/mL) were added to each well of the sterile 96-well plate. The samples were incubated for 18 h at 37°C. After incubation, the MICs of the peptides were determined by evaluating the growth based on the OD600 of the cultures.

S. aureus ATCC 25923 [3] = format: cell-based, Staphylococcus aureus
Protocol: as §1

P. aeruginosa GIM 1.551 [4] = format: cell-based, Pseudomonas aeruginosa
Protocol: as §1

P. aeruginosa GIM 1.551 [5] = assay: Subcutaneous abscess model; format: in vivo, BALB/c mice; settings: injected 20 μL, 1 μg/μL, once a day for 3 days
Protocol: A subcutaneous abscess model in vivo was established as previously reported (Zhao et al., [2019]). The mouse dorsal region with 3.0 cm diameter was treated with hair pusher. A total of 120 mice were randomly divided into two experimental models, one was challenged with S. aureus ATCC 25923 (2.5 × 10^8 CFU/mL, 60 μL), and the other was challenged with P. aeruginosa GIM 1.551 (3.0 × 10^8 CFU/mL, 60 μL). In the S. aureus ATCC 25923 model, 60 mice were divided into six groups of 10 members. The mice with no infection and treatment was used as a blank control, those directly injected with PBS (20 μL) as the negative control group, those injected with benzylpenicillin potassium (20 μL, 1 μg/μL) as the positive control group, and the remaining three groups as the treatment groups injected with Myr-36PW (20 μL, 1 μg/μL), PMAP-36PW (20 μL, 1 μg/μL), and PMAP-36 (20 μL, 1 μg/μL). The procedure in P. aeruginosa GIM 1.551 model is the same as that in S. aureus ATCC 25923 model, except for the use of ampicillin sodium as a positive control. Treatment once a day for 3 days was initiated when the mice developed prominent pustules on their backs. A day after the treatment, the size of the abscess was observed, and its tissues were excised, homogenized, and serially diluted. Bacteria CFU counts were calculated.
Figure 10 Treatment efficacy of subcutaneous abscess by Myr-36PW in vivo. Mice were injected with S. aureus ATCC 25923 or P. aeruginosa GIM 1.551 to develop a subcutaneous abscess before treatment. (A) Changes in the abscess area of mice after 3 days treatment. (B,C) Quantitative analysis of bacterial CFU in abscess area that received 3 days treatment under various experimental conditions. The number of CFU in each treatment group was normalized by using the CFU of the experimental group divided by the CFU of the PBS group (100%). BP is benzylpenicillin potassium, AS is ampicillin sodium. Data represent the mean ± SD of five individual experiments. *P < 0.05 and **P < 0.01, compared with PBS. ^#P < 0.05 and ^##P < 0.01, compared with PMAP-36PW.

MICs of different classes of antibiotics ([2]; L. monocytogenes CICC 21634, * indicates resistant (CLSI, 2020)) [µg/mL] | MICs of different classes of antibiotics (S. aureus ATCC 25923 [3]; S. aureus ATCC 25923, * indicates resistant (CLSI, 2020)) [µg/mL] | MICs of different classes of antibiotics (P. aeruginosa GIM 1.551 [4]; P. aeruginosa GIM 1.551, * indicates resistant (CLSI, 2020)) [µg/mL] | SMILES | Liver and spleen histopathology (H&E) (S. aureus ATCC 25923 [1]) | Liver pathogenic scores (S. aureus ATCC 25923 [1]) | Bacterial CFU in liver and spleen homogenate (S. aureus ATCC 25923 [1]) | Spleen pathogenic scores (S. aureus ATCC 25923 [1]) | MICs ([2]; CICC 21634, 18 h) [µg/mL] | MICs (S. aureus ATCC 25923 [3]; ATCC 25923, 18 h) [µg/mL] | Abscess area (P. aeruginosa GIM 1.551 [5]) | Bacterial CFU in abscess area (P. aeruginosa GIM 1.551 [5]; vs PMAP-36PW: Myr-36PW P < 0.05, ampicillin sodium P < 0.01, n = 5) | MICs (P. aeruginosa GIM 1.551 [4]; GIM 1.551, 18 h) [µg/mL]
64 | <0.25 | 64 | CC1(C)S[C@@H]2[C@H](NC(=O)Cc3ccccc3)C(=O)N2[C@H]1C(=O)O [Benzylpenicillin potassium] | the liver cells of mice were neatly arranged with clear cell boundaries and no pathological changes in spleen tissues | significantly lower than PBS group (P < 0.01) | significantly decreased compared with that of PMAP-36PW group (P < 0.05) | displayed significant difference (P < 0.01); also recorded: lower than those for PMAP-36PW group (P < 0.05) | – | – | – | – | –
– | – | – | CCCCCCCCCCCCCC(=O)NCC(=O)NCC(=O)N[C@@H](CCCNC(=N)N)C(=O)N[C@@H](Cc1ccccc1)C(=O)N[C@@H](CCCNC(=N)N)C(=O)N[C@@H](CCCNC(=N)N)C(=O)N[C@@H](CC(C)C)C(=O)N[C@@H](CCCNC(=N)N)C(=O)N[C@@H](CCCCN)C(=O)N[C@@H](CCCCN)C(=O)N[C@H](C(=O)N[C@@H](CCCNC(=N)N)C(=O)N[C@@H](CCCCN)C(=O)N[C@@H](CCCNC(=N)N)C(=O)N[C@@H](CC(C)C)C(=O)N[C@@H](CCCCN)C(=O)N[C@@H](CCCCN)C(=O)N[C@H](C(=O)NCC(=O)N[C@@H](CCCCN)C(=O)N[C@H](C(=O)N[C@@H](CC(C)C)C(=O)N[C@@H](CCCCN)C(=O)N[C@@H](Cc1c[nH]c2ccccc12)C(=O)N[C@H](C(=O)N[C@@H](Cc1c[nH]c2ccccc12)C(=O)N[C@@H](Cc1c[nH]c2ccccc12)C(=O)N[C@H](C(=O)N[C@H](C(=O)NCC(=O)N[C@@H](CO)C(=O)N[C@H](C(=O)N1CCC[C@H]1C(=O)N[C@@H](CC(C)C)C(=O)NCC(=O)N[C@@H](CS)C(=O)NCC(=O)O)[C@@H](C)CC)C(C)C)[C@@H](C)CC)[C@@H](C)CC)C(C)C)[C@@H](C)CC)[C@@H](C)O [Myr-36PW] (Myristoyl-GGRFRRLRKKTRKRLKKIGKVLKWIWWIVGSIPLGCG-OH; C-terminus assumed) | the liver cells of mice were neatly arranged with clear cell boundaries and no pathological changes in spleen tissues | significantly lower than PBS group (P < 0.01) | significantly decreased compared with that of PMAP-36PW group (P < 0.05) | displayed significant difference (P < 0.01); also recorded: lower than those for PMAP-36PW group (P < 0.05) | 0.5 | 0.0020 | significantly reduced the abscess area and effectively suppressed its growth | significant difference compared with that of PBS group (P < 0.01); also recorded: lower than that of PMAP-36PW group | 0.25
